Experimental data taken from the CheMixHub viscosity set.
± gives the uncertainty stated by the source.

Assay: xn = mol fraction of the nth substance listed

Cc1ccccc1 + CCCO
Conditions	viscosity [mPa·s]
293.15 K, 100 kPa, x2 = 0.125	0.611 ± 0.015
293.15 K, 100 kPa, x2 = 0.25	0.636 ± 0.016
293.15 K, 100 kPa, x2 = 0.375	0.747 ± 0.019
293.15 K, 100 kPa, x2 = 0.5	0.875 ± 0.023
293.15 K, 100 kPa, x2 = 0.625	1.055 ± 0.028
293.15 K, 100 kPa, x2 = 0.75	1.312 ± 0.036
293.15 K, 100 kPa, x2 = 0.875	1.685 ± 0.048
298.15 K, 100 kPa, x2 = 0.0553	0.5596 ± 0.067
298.15 K, 100 kPa, x2 = 0.1089	0.572 ± 0.069
298.15 K, 100 kPa, x2 = 0.1987	0.5972 ± 0.072
298.15 K, 100 kPa, x2 = 0.319	0.6607 ± 0.079
298.15 K, 100 kPa, x2 = 0.4308	0.7379 ± 0.089
298.15 K, 100 kPa, x2 = 0.5349	0.7998 ± 0.096
298.15 K, 100 kPa, x2 = 0.632	0.9538 ± 0.11
298.15 K, 100 kPa, x2 = 0.723	1.116 ± 0.13
298.15 K, 100 kPa, x2 = 0.8083	1.265 ± 0.15
298.15 K, 100 kPa, x2 = 0.8884	1.563 ± 0.19
298.15 K, 100 kPa, x2 = 0.9639	1.825 ± 0.22
298.15 K, 101 kPa, x2 = 0.1	0.558 ± 0.0071
298.15 K, 101 kPa, x2 = 0.2	0.588 ± 0.0075
298.15 K, 101 kPa, x2 = 0.3	0.6389 ± 0.0081
298.15 K, 101 kPa, x2 = 0.4	0.7091 ± 0.009
298.15 K, 101 kPa, x2 = 0.5	0.801 ± 0.01
298.15 K, 101 kPa, x2 = 0.6	0.9211 ± 0.012
298.15 K, 101 kPa, x2 = 0.7	1.08 ± 0.013
298.15 K, 101 kPa, x2 = 0.8	1.292 ± 0.016
298.15 K, 101 kPa, x2 = 0.9	1.576 ± 0.019
303 K, 101 kPa, x1 = 0.1006	1.367
303 K, 101 kPa, x1 = 0.2012	1.171
303 K, 101 kPa, x1 = 0.3009	1.025
303 K, 101 kPa, x1 = 0.3981	0.902
303 K, 101 kPa, x1 = 0.5016	0.785
303 K, 101 kPa, x1 = 0.6052	0.699
303 K, 101 kPa, x1 = 0.7001	0.645
303 K, 101 kPa, x1 = 0.8095	0.598
303 K, 101 kPa, x1 = 0.9011	0.546
303.15 K, 101.33 kPa, x1 = 0.1141	1.376 ± 0.022
303.15 K, 101.33 kPa, x1 = 0.1926	1.182 ± 0.019
303.15 K, 101.33 kPa, x1 = 0.2912	0.982 ± 0.016
303.15 K, 101.33 kPa, x1 = 0.3778	0.866 ± 0.014
303.15 K, 101.33 kPa, x1 = 0.4778	0.761 ± 0.013
303.15 K, 101.33 kPa, x1 = 0.6242	0.651 ± 0.011
303.15 K, 101.33 kPa, x1 = 0.7421	0.587 ± 0.011
303.15 K, 101.33 kPa, x1 = 0.8737	0.541 ± 0.01
303.15 K, 101.33 kPa, x1 = 0.9517	0.527 ± 0.01
308.15 K, 100 kPa, x2 = 0.0553	0.5017 ± 0.06
308.15 K, 100 kPa, x2 = 0.1089	0.5107 ± 0.061
308.15 K, 100 kPa, x2 = 0.1987	0.5293 ± 0.064
308.15 K, 100 kPa, x2 = 0.319	0.572 ± 0.069
308.15 K, 100 kPa, x2 = 0.4308	0.6289 ± 0.076
308.15 K, 100 kPa, x2 = 0.5349	0.6996 ± 0.084
308.15 K, 100 kPa, x2 = 0.632	0.7945 ± 0.096
308.15 K, 100 kPa, x2 = 0.723	0.8952 ± 0.11
308.15 K, 100 kPa, x2 = 0.8083	1.019 ± 0.12
308.15 K, 100 kPa, x2 = 0.8884	1.24 ± 0.15
308.15 K, 100 kPa, x2 = 0.9639	1.422 ± 0.17
308.15 K, 101.33 kPa, x1 = 0.1141	1.251 ± 0.02
308.15 K, 101.33 kPa, x1 = 0.1926	1.078 ± 0.017
308.15 K, 101.33 kPa, x1 = 0.2912	0.899 ± 0.015
308.15 K, 101.33 kPa, x1 = 0.3778	0.795 ± 0.013
308.15 K, 101.33 kPa, x1 = 0.4778	0.703 ± 0.012
308.15 K, 101.33 kPa, x1 = 0.6242	0.608 ± 0.011
308.15 K, 101.33 kPa, x1 = 0.7421	0.553 ± 0.01
308.15 K, 101.33 kPa, x1 = 0.8737	0.514 ± 0.01
308.15 K, 101.33 kPa, x1 = 0.9517	0.499 ± 0.007
313.15 K, 100 kPa, x2 = 0.125	0.479 ± 0.012
313.15 K, 100 kPa, x2 = 0.25	0.495 ± 0.012
313.15 K, 100 kPa, x2 = 0.375	0.554 ± 0.014
313.15 K, 100 kPa, x2 = 0.5	0.625 ± 0.017
313.15 K, 100 kPa, x2 = 0.625	0.728 ± 0.02
313.15 K, 100 kPa, x2 = 0.75	0.876 ± 0.025
313.15 K, 100 kPa, x2 = 0.875	1.087 ± 0.033
313.15 K, 101.33 kPa, x1 = 0.1141	1.15 ± 0.018
313.15 K, 101.33 kPa, x1 = 0.1926	0.99 ± 0.016
313.15 K, 101.33 kPa, x1 = 0.2912	0.83 ± 0.014
313.15 K, 101.33 kPa, x1 = 0.3778	0.736 ± 0.013
313.15 K, 101.33 kPa, x1 = 0.4778	0.655 ± 0.011
313.15 K, 101.33 kPa, x1 = 0.6242	0.57 ± 0.01
313.15 K, 101.33 kPa, x1 = 0.7421	0.521 ± 0.01
313.15 K, 101.33 kPa, x1 = 0.8737	0.491 ± 0.007
313.15 K, 101.33 kPa, x1 = 0.9517	0.476 ± 0.007

C1CCOC1 + CCO
Conditions	viscosity [mPa·s]
298.15 K, 101 kPa, x1 = 0.4	0.6728 ± 0.018

CC(C)=O + CCO
298.15 K, 101 kPa
Conditions	viscosity [mPa·s]
x1 = 0.1868	0.7168 ± 0.0055
x1 = 0.2337	0.651 ± 0.005
x1 = 0.3003	0.5795 ± 0.0046
x1 = 0.3162	0.5636 ± 0.0045
x1 = 0.378	0.5162 ± 0.0042
x1 = 0.3887	0.5028 ± 0.0041
x1 = 0.4579	0.462 ± 0.0038
x1 = 0.6529	0.3836 ± 0.0033

CC1COC(=O)O1 (centres undefined) + CCO
298 K, 101.3 kPa
Conditions	viscosity [mPa·s]
x1 = 0.021	1.1 ± 0.0069
x1 = 0.0404	1.116 ± 0.007
x1 = 0.06	1.131 ± 0.0071
x1 = 0.0806	1.147 ± 0.0072
x1 = 0.0987	1.161 ± 0.0073
x1 = 0.2008	1.237 ± 0.0077
x1 = 0.3003	1.312 ± 0.0082
x1 = 0.4003	1.397 ± 0.0088
x1 = 0.5002	1.497 ± 0.0094
x1 = 0.6002	1.619 ± 0.01
x1 = 0.7001	1.768 ± 0.011
x1 = 0.8	1.947 ± 0.012
x1 = 0.9005	2.165 ± 0.014

COc1ccccc1 + CCO
298.15 K, 101 kPa
Conditions	viscosity [mPa·s]
x1 = 0.07099	1.045 ± 0.01
x1 = 0.152	0.989 ± 0.01
x1 = 0.2432	0.947 ± 0.01
x1 = 0.3485	0.918 ± 0.0092
x1 = 0.4715	0.904 ± 0.0091
x1 = 0.6165	0.905 ± 0.0091
x1 = 0.7928	0.924 ± 0.0093

Cc1ccccc1 + CCO
Conditions	viscosity [mPa·s]
293.2 K, 101.32 kPa, x2 = 0.05	0.568 ± 0.015
293.2 K, 101.32 kPa, x2 = 0.136	0.587 ± 0.016
293.2 K, 101.32 kPa, x2 = 0.28	0.616 ± 0.016
293.2 K, 101.32 kPa, x2 = 0.55	0.731 ± 0.019
293.2 K, 101.32 kPa, x2 = 0.735	0.861 ± 0.023
303 K, 101 kPa, x1 = 0.1006	0.821
303 K, 101 kPa, x1 = 0.2012	0.786
303 K, 101 kPa, x1 = 0.3009	0.724
303 K, 101 kPa, x1 = 0.3981	0.686
303 K, 101 kPa, x1 = 0.5016	0.643
303 K, 101 kPa, x1 = 0.6052	0.613
303 K, 101 kPa, x1 = 0.7001	0.602
303 K, 101 kPa, x1 = 0.8095	0.569
303 K, 101 kPa, x1 = 0.9011	0.551
303 K, 101.33 kPa, x2 = 0.3333	0.574 ± 0.04
303 K, 101.33 kPa, x2 = 0.5714	0.651 ± 0.044
303 K, 101.33 kPa, x2 = 0.75	0.774 ± 0.051
303 K, 101.33 kPa, x2 = 0.8889	0.927 ± 0.06
303.15 K, 101.33 kPa, x1 = 0.0692	0.893 ± 0.015
303.15 K, 101.33 kPa, x1 = 0.1849	0.803 ± 0.014
303.15 K, 101.33 kPa, x1 = 0.3191	0.699 ± 0.012
303.15 K, 101.33 kPa, x1 = 0.5285	0.596 ± 0.011
303.15 K, 101.33 kPa, x1 = 0.5858	0.575 ± 0.01
303.15 K, 101.33 kPa, x1 = 0.6901	0.546 ± 0.01
303.15 K, 101.33 kPa, x1 = 0.7906	0.527 ± 0.01
303.15 K, 101.33 kPa, x1 = 0.8565	0.519 ± 0.01
303.15 K, 101.33 kPa, x1 = 0.9213	0.524 ± 0.01
308.15 K, 101.33 kPa, x1 = 0.0692	0.814 ± 0.014
308.15 K, 101.33 kPa, x1 = 0.1849	0.736 ± 0.013
308.15 K, 101.33 kPa, x1 = 0.3191	0.642 ± 0.011
308.15 K, 101.33 kPa, x1 = 0.5285	0.552 ± 0.01
308.15 K, 101.33 kPa, x1 = 0.5858	0.533 ± 0.01
308.15 K, 101.33 kPa, x1 = 0.6901	0.507 ± 0.007
308.15 K, 101.33 kPa, x1 = 0.7906	0.491 ± 0.007
308.15 K, 101.33 kPa, x1 = 0.8565	0.486 ± 0.007
308.15 K, 101.33 kPa, x1 = 0.9213	0.493 ± 0.007
313 K, 101.33 kPa, x2 = 0.3333	0.504 ± 0.036
313 K, 101.33 kPa, x2 = 0.5714	0.557 ± 0.039
313 K, 101.33 kPa, x2 = 0.75	0.654 ± 0.045
313 K, 101.33 kPa, x2 = 0.8889	0.778 ± 0.051
323 K, 101.33 kPa, x2 = 0.3333	0.446 ± 0.033
323 K, 101.33 kPa, x2 = 0.5714	0.479 ± 0.035
323 K, 101.33 kPa, x2 = 0.75	0.557 ± 0.039
323 K, 101.33 kPa, x2 = 0.8889	0.648 ± 0.044
